Paper PMC11876601 (Molecular Systems Biology, 2025)

Assays:
Test in all cases: cells
Design in all cases: Viability of PDAC cell lines, ATPlite luminescence, 11-dose single-agent curve fit
[1] = system: AsPC-1; details: Homo sapiens, ASPC1, 72 h, read-out: EC50 [nM]
Procedure: (§1) Afterward, small amounts were transferred to 384-well intermediate plates (Greiner Bio-One GmbH, Germany). […] For drug combination screening, 1000 to 5000 cells were seeded into 384-well plates (CulturPlate™, Perkin Elmer, MA, USA) using a Multidrop™ Combi Reagent Dispenser (Thermo Scientific, MA, USA) in 50 µl medium per well 24 h prior to drug treatment (seeding densities see Appendix Table S1). […] The final DMSO concentration in each well was 0.2%. […] Eight wells per plate without library drug served as negative controls, and sixteen wells per plate containing 5 µM Staurosporine served as positive controls. […] Next, we analyzed the drug sensitivity of immortalized duct cell line HPDE to detect effects unrelated to pancreatic cancer.

[2] = system: BxPC-3; details: Homo sapiens, BXPC-3, 72 h, read-out: EC50 [nM]
Procedure: as §1

[3] = system: Capan-1; details: Homo sapiens, CAPAN-1, 72 h, read-out: EC50 [nM]
Procedure: as §1

[4] = system: Colo-357; details: Homo sapiens, COLO357, 72 h, read-out: EC50 [nM]
Procedure: as §1

[5] = system: Dan-G; details: 72 h, read-out: EC50 [nM]
Procedure: as §1

[6] = system: FAMPAC; details: 72 h, read-out: EC50 [nM]
Procedure: as §1

[7] = system: HPDE; details: HPDE, 72 h, read-out: EC50 [nM]
Procedure: as §1

[8] = system: HuP-T4; details: Homo sapiens, HuP-T4, 72 h, read-out: EC50 [nM]
Procedure: as §1

[9] = system: MiaPaCa-2; details: Homo sapiens, MIA PaCa-2, 72 h, read-out: EC50 [nM]
Procedure: as §1

[10] = system: PANC-1; details: Homo sapiens, PANC-1, 72 h, read-out: EC50 [nM]
Procedure: as §1

[11] = system: PSN-1; details: Homo sapiens, PSN1, 72 h, read-out: EC50 [nM]
Procedure: as §1

[12] = system: PaTu-8988-T; details: Homo sapiens, PaTu 8988t, 72 h, read-out: EC50 [nM]
Procedure: as §1

[13] = system: Suit2-07; details: 72 h, read-out: EC50 [nM]
Procedure: as §1

Row | Structure (SMILES) | EC50 [1] | EC50 [2] | EC50 [3] | EC50 [4] | EC50 [5] | EC50 [6] | EC50 [7] | EC50 [8] | EC50 [9] | EC50 [10] | EC50 [11] | EC50 [12] | EC50 [13]
1 | N#CC1(c2ccc(NC(=O)c3cccnc3NCc3ccncc3)cc2)CCCC1 [Apatinib] | 452 nM | 5230 nM | > 10000 nM | 4280 nM | 5380 nM | > 10000 nM | 7430 nM | 283 nM | > 10000 nM | 2350 nM | > 10000 nM | > 10000 nM | 1420 nM
2 | O=c1sn(-c2cccc3ccccc23)c(=O)n1Cc1ccccc1 [Tideglusib] | 66.8 nM | 2600 nM | 51.8 nM | 24.5 nM | 1490 nM | 2070 nM | 58 nM | 4540 nM | 344 nM | > 10000 nM | 0.13 nM | 636 nM | 9730 nM
3 | COCCNc1cc(NC(=O)N2CCCc3cc(CN4CCN(C)CC4=O)c(C=O)nc32)ncc1C#N [Roblitinib] | 0.56 nM | 5220 nM | 25.8 nM | > 10000 nM | 150 nM | 7290 nM | 0.09 nM | 60.7 nM | 207 nM | 1060 nM | 4040 nM | > 10000 nM | 7.75 nM
4 | N#CCC1(n2cc(-c3ncnc4[nH]ccc34)cn2)CN(C2CCN(C(=O)c3ccnc(C(F)(F)F)c3F)CC2)C1 [Itacitinib] | 17.1 nM | 52.1 nM | 142 nM | 75 nM | 3820 nM | 1420 nM | 873 nM | 316 nM | 770 nM | 21.2 nM | 124 nM | 292 nM | 72.1 nM
5 | Clc1ccc(Nc2nnc(Cc3ccncc3)c3ccccc23)cc1 [Vatalanib] | > 10000 nM | 9360 nM | 4530 nM | 3990 nM | 6860 nM | 6650 nM | 32.8 nM | 23.9 nM | > 10000 nM | > 10000 nM | 4870 nM | 3840 nM | > 10000 nM
6 | CC[C@@H]1CN(C(=O)NCC(F)(F)F)C[C@@H]1c1cnc2cnc3[nH]ccc3n12 [Upadacitinib] | 137 nM | 704 nM | 0.18 nM | 1.06 nM | 309 nM | 49 nM | 26.9 nM | 973 nM | 1590 nM | 215 nM | 7050 nM | > 10000 nM | 6.77 nM
7 | Cc1cc(C)c(/C=C2\C(=O)Nc3ccccc32)[nH]1 [Semaxanib] | 3330 nM | 5.83 nM | 5010 nM | 317 nM | 169 nM | 43.5 nM | > 10000 nM | 42.4 nM | > 10000 nM | 66.8 nM | 127 nM | 815 nM | 2320 nM
8 | CO[C@H]1C[C@@H]2CC[C@@H](C)[C@@](O)(O2)C(=O)C(=O)N2CCCC[C@H]2C(=O)O[C@H]([C@H](C)C[C@@H]2CC[C@@H](OCCO)[C@H](OC)C2)CC(=O)[C@H](C)/C=C(\C)[C@@H](O)[C@@H](OC)C(=O)[C@H](C)C[C@H](C)/C=C/C=C/C=C/1C [Certican] | 0.14 nM | 0.09 nM | 3520 nM | 238 nM | 0.21 nM | 5.43 nM | 0.16 nM | 2.46 nM | 1.84 nM | 171 nM | 0.05 nM | 0.1 nM | 2610 nM
9 | FC(F)(F)c1ccc(CNc2ccc(Cc3c[nH]c4ncc(Cl)cc34)cn2)cn1 [Pexidartinib] | 9890 nM | 8880 nM | > 10000 nM | 10100 nM | 6180 nM | 4000 nM | 10200 nM | 4690 nM | 2640 nM | 2210 nM | 6940 nM | 46.5 nM | 1100 nM
10 | Cn1cc(-c2cc3c(N4CCN(c5ncc([C@@](C)(N)c6ccc(F)cc6)cn5)CC4)ncnn3c2)cn1 [Avapritinib] | 1990 nM | 3240 nM | 3830 nM | 420 nM | 3820 nM | 2070 nM | 976 nM | 701 nM | 1710 nM | 2600 nM | 1010 nM | 1570 nM | 3550 nM
11 | CCC(=O)N1CC[C@H](Nc2ncnc3c2CN(c2cnc(OC)c(C(F)(F)F)c2)CC3)C1 [Leniolisib] | 2110 nM | 2210 nM | 4340 nM | 3830 nM | 6460 nM | 2610 nM | 6030 nM | 733 nM | > 10000 nM | > 10000 nM | 8970 nM | 9180 nM | 4720 nM
12 | CCN(CCCOc1ccc2c(Nc3cc(CC(=O)Nc4cccc(F)c4)[nH]n3)ncnc2c1)CCOP(=O)(O)O [Barasertib] | 56.3 nM | 53.6 nM | 42 nM | 852 nM | 296 nM | 40.1 nM | 74.6 nM | 56.8 nM | 4.24 nM | 74 nM | 32.6 nM | 10300 nM | 3290 nM
13 | CC#CC(=O)N1CCC[C@H]1c1nc(-c2ccc(C(=O)Nc3ccccn3)cc2)c2c(N)nccn12 [Acalabrutinib] | 1.48 nM | 756 nM | 3020 nM | 2640 nM | 553 nM | > 10000 nM | 703 nM | 632 nM | 718 nM | 365 nM | 4470 nM | 1590 nM | 13.1 nM
14 | CNC(=O)c1c(C)oc2cc(Oc3ncnc4cc(OC)c(OC)cc34)ccc12 [Fruquintinib] | 596 nM | 0.01 nM | 32.9 nM | 5.08 nM | 1.05 nM | 1660 nM | 552 nM | 653 nM | 2740 nM | 20.4 nM | 5.57 nM | 1810 nM | 0.05 nM
15 | Cc1ccc(Nc2nccc(N(C)c3ccc4c(C)n(C)nc4c3)n2)cc1S(N)(=O)=O [Pazopanib] | > 10000 nM | > 10000 nM | > 10000 nM | > 10000 nM | 4120 nM | 5020 nM | 2410 nM | 135 nM | 3820 nM | 913 nM | 8400 nM | 35.4 nM | > 10000 nM
16 | Cc1cccc(-c2[nH]c(CNc3ccccc3F)nc2-c2ccc3ncnn3c2)n1 [Vactosertib] | 78.2 nM | 2150 nM | 809 nM | 7510 nM | 51.8 nM | 3450 nM | 217 nM | 17.8 nM | 6110 nM | 3660 nM | 4290 nM | 838 nM | 0.8 nM
17 | CCCS(=O)(=O)Nc1ccc(F)c(C(=O)c2c[nH]c3ncc(-c4ccc(Cl)cc4)cc23)c1F [Vemurafenib] | 869 nM | > 10000 nM | > 10000 nM | 5000 nM | > 10000 nM | 2990 nM | > 10000 nM | > 10000 nM | > 10000 nM | 6.65 nM | > 10000 nM | 708 nM | 1590 nM
